Like-named read-outs stand apart in the source and are kept apart here. Ends that are not written are not given here.
Tests used:
Type in all cases: in vitro ADME
[1] = Permeability in a Caco-2 assay; conditions: human; for efflux ratio at 10 μM: read-out: Mean (B-A/A-B) Efflux Ratio
Protocol: (§1) Permeability of the S62 and S71 peptides were assessed in a Caco-2 assay using methanol.
(§2) Permeability Ranking: lower is <1×10−6 cm/s; higher is >1×10-6 cm/s.

Stability in rat plasma = conditions: in vitro in rat plasma, 1% TCA and methanol as quenchers
Protocol: S62 and S71 peptides (SEQ ID NOs: 3 and 4, respectively) were incubated in vitro in rat plasma with 1% TCA and methanol as quenchers for a period of time calculated to be reflective of the amount of time the peptides would be subject to in vivo conditions if administered to rats.

Caco-2 = experiment: Permeability in a Caco-2 assay; conditions: Caco-2 assay using methanol
Protocol: as §1, §2

[2] = Caco-2, Assay Conc. 10 μM, without verapamil
[3] = Caco-2, Assay Conc. 10 μM, without verapamil, read-out: Mean A-B % Recovery
[4] = Caco-2, Assay Conc. 10 μM, without verapamil, read-out: Mean B-A % Recovery
[5] = Caco-2, with Verapamil 25 uM, Assay Conc. 10 μM, with Verapamil 25 uM, read-out: Mean A-B % Recovery
[6] = Caco-2, with Verapamil 25 uM, Assay Conc. 10 μM, with Verapamil 25 uM, read-out: Mean B-A % Recovery

CC(=O)CC(c1ccccc1)c1c(O)c2ccccc2oc1=O (stereo not shown) [Warfarin, reference compound]
Papp A→B at 10 μM [1, 2]: 36.8 ×10⁻⁶ cm/s
Papp B→A at 10 μM [1, 2]: 33.8 ×10⁻⁶ cm/s
efflux ratio at 10 μM [1, 2]: 0.917
recovery at 10 μM [1, 3]: 93%
recovery at 10 μM [1, 4]: 93.4%

RAVVTGVTAVAE [S71, RAVVTGVTAVAE]
recovery of the peptides after incubation in rat plasma (Stability in rat plasma): not high enough to detect
recovery at 10 μM [1, 3]: 91.4%
recovery at 10 μM [1, 4]: 74.7%
recovery at 10 μM [1, 5]: 80.7%
recovery at 10 μM [1, 6]: 92.7%
Permeability (in words) (Caco-2): neither of the peptides exhibited permeability

CNC(=C[N+](=O)[O-])NCCSCc1ccc(CN(C)C)o1 [Ranitidine, reference compound]
Papp A→B at 10 μM [1, 2]: 0.391 ×10⁻⁶ cm/s
Papp B→A at 10 μM [1, 2]: 1.03 ×10⁻⁶ cm/s
efflux ratio at 10 μM [1, 2]: 2.65
recovery at 10 μM [1, 3]: 87.1%
recovery at 10 μM [1, 4]: 95.2%

GAVVWGVTAVKK [S62, GAVVWGVTAVKK]
recovery of the peptides after incubation in rat plasma (Stability in rat plasma): not high enough to detect
recovery at 10 μM [1, 3]: 70.1%
recovery at 10 μM [1, 4]: 92.5%
recovery at 10 μM [1, 5]: 59.7%
recovery at 10 μM [1, 6]: 91.3%
Permeability (in words) (Caco-2): neither of the peptides exhibited permeability

Source: patent US20240025953A1, “COMPOSITIONS AND METHODS FOR INHIBITING ALPHA-SYNUCLEIN AGGREGATION” (Seelos Therapeutics, Inc., priority 2020, published 2024)
